Results published in patent US12496348B2, “Small molecule target bromo/acetyl proteins and uses thereof” (DANA-FARBER CANCER INSTITUTE, INC., priority 2019, dated 2025).
Read-outs that look alike come from different tables or passages of the source.

What was measured:
Format in all cases: cell-based
[1] = system: Kelly Neuroblastoma cells; assay: ATPlite Luminescence viability assay, Kelly neuroblastoma cells, 72 h; settings: for IC50 values (range in words): Kelly Neuroblastoma cell proliferation; for IC50: Kelly Neuroblastoma cells, ATPlite
Method: Kelly Neuroblastoma cells were seeded at 1,000 cells per well in 384 well, white plates and were treated in a dose-dependent manner for 72 h.

[2] = target: CBP (Homo sapiens (Human), UniProt Q92793); assay: Western blot for CBP degradation in Kelly NB cells; settings: 24 hours
Method: (§1) […] Whole cell lysates were collected using ice cold lysis buffer [300 mM NaCl, 50 mM Tris-HCl, pH 7.5, 0.5% Triton X-100, 1% sodium dodecyl sulfate (SDS), 1 mM dithiothreitol (DTT) (Invitrogen™), Roche®'s cOmplete™ protease inhibitor cocktail (1:000), 25 units/mL Benzonase®] and blotted at a protein concentration of 30 μg for EP300 and CBP and 10 μg for histone H3 and H3K27ac. Lysates were also blotted for bromodomain-containing protein 4 (BRD4). Lysates were resolved in NuPAGE™ 3-8% Tris-Acetate polyacrylamide gels (EA03785BOX, Invitrogen™) for EP300 and CBP and Bolt 4-12% Bis-Tris polyacrylamide gels (NW04125BOX, Invitrogen™) for H3 and H3K27ac. Afterwards, gels were transferred to nitrocellulose membranes (LC2001, Invitrogen™). […] Visualization was performed on an Odyssey infrared imaging system (LiCor® Biosciences).

[3] = target: EP300 (Homo sapiens (Human), UniProt Q09472); assay: Western blot for EP300 degradation in Kelly NB cells; settings: 24 hours
Method: as §1

[4] = system: H3K27ac; assay: Western blot for H3K27ac levels in Kelly NB cells; settings: 24 hours; for acetylation levels (immunoblot): at 1 μM
Method: Kelly Neuroblastoma cells were seeded at 1,000,000 cells per well in 6 well plates and were treated in a dose-dependent manner for 24 hours. Whole cell lysates were collected using ice cold lysis buffer [300 mM NaCl, 50 mM Tris-HCl, pH 7.5, 0.5% Triton X-100, 1% sodium dodecyl sulfate (SDS), 1 mM dithiothreitol (DTT) (Invitrogen™), Roche®'s cOmplete™ protease inhibitor cocktail (1:000), 25 units/mL Benzonase®] and blotted at a protein concentration of 30 μg for EP300 and CBP and 10 μg for histone H3 and H3K27ac. Lysates were also blotted for bromodomain-containing protein 4 (BRD4). Lysates were resolved in NuPAGE™ 3-8% Tris-Acetate polyacrylamide gels (EA03785BOX, Invitrogen™) for EP300 and CBP and Bolt 4-12% Bis-Tris polyacrylamide gels (NW04125BOX, Invitrogen™) for H3 and H3K27ac. Afterwards, gels were transferred to nitrocellulose membranes (LC2001, Invitrogen™). […] Visualization was performed on an Odyssey infrared imaging system (LiCor® Biosciences).

[5] = target: bromodomain-containing protein 4 (BRD4) (Homo sapiens (Human), UniProt O60885); assay: Western blot for BRD4 levels in Kelly NB cells; settings: 24 h, at 1 μM
Method: Kelly Neuroblastoma cells were seeded at 1,000,000 cells per well in 6 well plates and were treated in a dose-dependent manner for 24 hours. Whole cell lysates were collected using ice cold lysis buffer [300 mM NaCl, 50 mM Tris-HCl, pH 7.5, 0.5% Triton X-100, 1% sodium dodecyl sulfate (SDS), 1 mM dithiothreitol (DTT) (Invitrogen™), Roche®'s cOmplete™ protease inhibitor cocktail (1:000), 25 units/mL Benzonase®] and blotted at a protein concentration of 30 μg for EP300 and CBP and 10 μg for histone H3 and H3K27ac. Lysates were also blotted for bromodomain-containing protein 4 (BRD4). Lysates were resolved in NuPAGE™ 3-8% Tris-Acetate polyacrylamide gels (EA03785BOX, Invitrogen™) for EP300 and CBP and Bolt 4-12% Bis-Tris polyacrylamide gels (NW04125BOX, Invitrogen™) for H3 and H3K27ac. Afterwards, gels were transferred to nitrocellulose membranes (LC2001, Invitrogen™). Primary and secondary antibodies used included anti-p300 at 1:500 dilution (ab10485, Abcam®), anti-CBP at 1:500 dilution (D6C5, Cell Signaling Technology®), anti-Actin at 1:5000 dilution (3700S, Cell Signaling Technology®), anti-H3 at 1:1000 dilution (4499S, Cell Signaling Technology®), anti-H3K27ac at 1:1000 dilution (ab4729, Abcam®), IRDye®800 goat anti-rabbit at 1:5000 dilution (926-32211, LiCor® Biosciences) and IRDye®680 goat anti-mouse at 1:5000 dilution (926-68070, LiCor®). Visualization was performed on an Odyssey infrared imaging system (LiCor® Biosciences).

[6] = class symbols, read-out: IC50 of inventive bispecific compounds

Chain of CBP (Q92793 whole entry): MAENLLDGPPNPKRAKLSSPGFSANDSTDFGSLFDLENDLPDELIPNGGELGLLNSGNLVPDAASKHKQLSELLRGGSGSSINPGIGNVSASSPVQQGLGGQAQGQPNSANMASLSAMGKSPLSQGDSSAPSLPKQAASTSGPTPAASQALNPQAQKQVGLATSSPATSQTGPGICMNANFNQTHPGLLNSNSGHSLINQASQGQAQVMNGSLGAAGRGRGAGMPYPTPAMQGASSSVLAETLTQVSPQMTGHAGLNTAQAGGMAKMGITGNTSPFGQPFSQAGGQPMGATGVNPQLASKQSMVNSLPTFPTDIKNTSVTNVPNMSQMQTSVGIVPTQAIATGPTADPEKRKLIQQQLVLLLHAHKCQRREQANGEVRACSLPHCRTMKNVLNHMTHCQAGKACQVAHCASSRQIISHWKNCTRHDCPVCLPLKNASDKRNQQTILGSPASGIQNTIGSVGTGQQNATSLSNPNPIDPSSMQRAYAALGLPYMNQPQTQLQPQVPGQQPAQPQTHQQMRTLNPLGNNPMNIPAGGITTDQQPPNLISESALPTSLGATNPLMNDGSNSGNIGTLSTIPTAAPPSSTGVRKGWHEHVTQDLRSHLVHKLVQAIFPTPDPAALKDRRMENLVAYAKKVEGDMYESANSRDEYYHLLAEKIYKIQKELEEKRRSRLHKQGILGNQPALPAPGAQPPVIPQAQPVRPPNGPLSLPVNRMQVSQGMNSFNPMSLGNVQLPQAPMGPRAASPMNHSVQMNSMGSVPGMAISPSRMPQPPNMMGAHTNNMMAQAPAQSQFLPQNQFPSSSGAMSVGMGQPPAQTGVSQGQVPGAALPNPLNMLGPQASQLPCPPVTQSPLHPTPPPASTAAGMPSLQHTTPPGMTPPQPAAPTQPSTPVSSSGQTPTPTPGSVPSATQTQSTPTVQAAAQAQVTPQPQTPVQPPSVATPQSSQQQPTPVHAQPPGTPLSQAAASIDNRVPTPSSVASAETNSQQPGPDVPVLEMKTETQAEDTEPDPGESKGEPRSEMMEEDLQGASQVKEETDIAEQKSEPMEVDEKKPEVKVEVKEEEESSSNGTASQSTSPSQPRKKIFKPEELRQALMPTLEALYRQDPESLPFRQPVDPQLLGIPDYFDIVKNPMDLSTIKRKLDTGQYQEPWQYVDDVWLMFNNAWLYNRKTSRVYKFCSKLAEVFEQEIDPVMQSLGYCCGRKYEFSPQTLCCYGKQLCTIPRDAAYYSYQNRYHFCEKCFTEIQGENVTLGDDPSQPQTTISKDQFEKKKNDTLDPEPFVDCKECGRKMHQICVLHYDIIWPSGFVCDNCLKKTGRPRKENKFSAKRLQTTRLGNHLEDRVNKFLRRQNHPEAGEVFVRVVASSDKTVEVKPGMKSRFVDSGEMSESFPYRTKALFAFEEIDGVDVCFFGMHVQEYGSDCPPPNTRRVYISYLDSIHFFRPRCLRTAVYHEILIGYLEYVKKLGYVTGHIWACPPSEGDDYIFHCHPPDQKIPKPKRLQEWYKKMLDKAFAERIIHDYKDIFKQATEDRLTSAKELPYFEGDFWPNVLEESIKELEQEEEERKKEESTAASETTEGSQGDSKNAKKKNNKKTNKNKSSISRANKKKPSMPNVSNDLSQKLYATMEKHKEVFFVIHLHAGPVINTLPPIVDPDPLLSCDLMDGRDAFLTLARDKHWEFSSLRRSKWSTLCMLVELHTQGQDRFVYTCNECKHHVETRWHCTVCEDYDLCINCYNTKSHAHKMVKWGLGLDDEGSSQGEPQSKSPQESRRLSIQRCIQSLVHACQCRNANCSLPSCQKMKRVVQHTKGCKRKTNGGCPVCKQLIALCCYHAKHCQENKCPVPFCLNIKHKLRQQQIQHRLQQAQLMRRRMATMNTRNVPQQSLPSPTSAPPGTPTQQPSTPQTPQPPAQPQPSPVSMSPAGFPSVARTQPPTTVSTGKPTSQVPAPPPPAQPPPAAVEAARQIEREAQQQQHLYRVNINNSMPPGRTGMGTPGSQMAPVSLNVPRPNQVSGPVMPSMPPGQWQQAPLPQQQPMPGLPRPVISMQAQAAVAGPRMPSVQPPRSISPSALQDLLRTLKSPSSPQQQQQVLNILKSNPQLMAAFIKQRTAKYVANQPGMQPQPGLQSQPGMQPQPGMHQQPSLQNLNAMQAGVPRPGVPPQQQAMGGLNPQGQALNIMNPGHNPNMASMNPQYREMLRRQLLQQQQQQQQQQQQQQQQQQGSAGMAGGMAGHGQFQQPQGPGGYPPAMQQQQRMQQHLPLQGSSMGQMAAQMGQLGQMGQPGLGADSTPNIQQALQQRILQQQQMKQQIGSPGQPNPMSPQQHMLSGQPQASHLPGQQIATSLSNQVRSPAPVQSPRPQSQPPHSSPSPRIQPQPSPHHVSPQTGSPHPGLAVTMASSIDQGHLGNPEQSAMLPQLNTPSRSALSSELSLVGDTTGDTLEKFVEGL
Chain of EP300 (Q09472 whole entry): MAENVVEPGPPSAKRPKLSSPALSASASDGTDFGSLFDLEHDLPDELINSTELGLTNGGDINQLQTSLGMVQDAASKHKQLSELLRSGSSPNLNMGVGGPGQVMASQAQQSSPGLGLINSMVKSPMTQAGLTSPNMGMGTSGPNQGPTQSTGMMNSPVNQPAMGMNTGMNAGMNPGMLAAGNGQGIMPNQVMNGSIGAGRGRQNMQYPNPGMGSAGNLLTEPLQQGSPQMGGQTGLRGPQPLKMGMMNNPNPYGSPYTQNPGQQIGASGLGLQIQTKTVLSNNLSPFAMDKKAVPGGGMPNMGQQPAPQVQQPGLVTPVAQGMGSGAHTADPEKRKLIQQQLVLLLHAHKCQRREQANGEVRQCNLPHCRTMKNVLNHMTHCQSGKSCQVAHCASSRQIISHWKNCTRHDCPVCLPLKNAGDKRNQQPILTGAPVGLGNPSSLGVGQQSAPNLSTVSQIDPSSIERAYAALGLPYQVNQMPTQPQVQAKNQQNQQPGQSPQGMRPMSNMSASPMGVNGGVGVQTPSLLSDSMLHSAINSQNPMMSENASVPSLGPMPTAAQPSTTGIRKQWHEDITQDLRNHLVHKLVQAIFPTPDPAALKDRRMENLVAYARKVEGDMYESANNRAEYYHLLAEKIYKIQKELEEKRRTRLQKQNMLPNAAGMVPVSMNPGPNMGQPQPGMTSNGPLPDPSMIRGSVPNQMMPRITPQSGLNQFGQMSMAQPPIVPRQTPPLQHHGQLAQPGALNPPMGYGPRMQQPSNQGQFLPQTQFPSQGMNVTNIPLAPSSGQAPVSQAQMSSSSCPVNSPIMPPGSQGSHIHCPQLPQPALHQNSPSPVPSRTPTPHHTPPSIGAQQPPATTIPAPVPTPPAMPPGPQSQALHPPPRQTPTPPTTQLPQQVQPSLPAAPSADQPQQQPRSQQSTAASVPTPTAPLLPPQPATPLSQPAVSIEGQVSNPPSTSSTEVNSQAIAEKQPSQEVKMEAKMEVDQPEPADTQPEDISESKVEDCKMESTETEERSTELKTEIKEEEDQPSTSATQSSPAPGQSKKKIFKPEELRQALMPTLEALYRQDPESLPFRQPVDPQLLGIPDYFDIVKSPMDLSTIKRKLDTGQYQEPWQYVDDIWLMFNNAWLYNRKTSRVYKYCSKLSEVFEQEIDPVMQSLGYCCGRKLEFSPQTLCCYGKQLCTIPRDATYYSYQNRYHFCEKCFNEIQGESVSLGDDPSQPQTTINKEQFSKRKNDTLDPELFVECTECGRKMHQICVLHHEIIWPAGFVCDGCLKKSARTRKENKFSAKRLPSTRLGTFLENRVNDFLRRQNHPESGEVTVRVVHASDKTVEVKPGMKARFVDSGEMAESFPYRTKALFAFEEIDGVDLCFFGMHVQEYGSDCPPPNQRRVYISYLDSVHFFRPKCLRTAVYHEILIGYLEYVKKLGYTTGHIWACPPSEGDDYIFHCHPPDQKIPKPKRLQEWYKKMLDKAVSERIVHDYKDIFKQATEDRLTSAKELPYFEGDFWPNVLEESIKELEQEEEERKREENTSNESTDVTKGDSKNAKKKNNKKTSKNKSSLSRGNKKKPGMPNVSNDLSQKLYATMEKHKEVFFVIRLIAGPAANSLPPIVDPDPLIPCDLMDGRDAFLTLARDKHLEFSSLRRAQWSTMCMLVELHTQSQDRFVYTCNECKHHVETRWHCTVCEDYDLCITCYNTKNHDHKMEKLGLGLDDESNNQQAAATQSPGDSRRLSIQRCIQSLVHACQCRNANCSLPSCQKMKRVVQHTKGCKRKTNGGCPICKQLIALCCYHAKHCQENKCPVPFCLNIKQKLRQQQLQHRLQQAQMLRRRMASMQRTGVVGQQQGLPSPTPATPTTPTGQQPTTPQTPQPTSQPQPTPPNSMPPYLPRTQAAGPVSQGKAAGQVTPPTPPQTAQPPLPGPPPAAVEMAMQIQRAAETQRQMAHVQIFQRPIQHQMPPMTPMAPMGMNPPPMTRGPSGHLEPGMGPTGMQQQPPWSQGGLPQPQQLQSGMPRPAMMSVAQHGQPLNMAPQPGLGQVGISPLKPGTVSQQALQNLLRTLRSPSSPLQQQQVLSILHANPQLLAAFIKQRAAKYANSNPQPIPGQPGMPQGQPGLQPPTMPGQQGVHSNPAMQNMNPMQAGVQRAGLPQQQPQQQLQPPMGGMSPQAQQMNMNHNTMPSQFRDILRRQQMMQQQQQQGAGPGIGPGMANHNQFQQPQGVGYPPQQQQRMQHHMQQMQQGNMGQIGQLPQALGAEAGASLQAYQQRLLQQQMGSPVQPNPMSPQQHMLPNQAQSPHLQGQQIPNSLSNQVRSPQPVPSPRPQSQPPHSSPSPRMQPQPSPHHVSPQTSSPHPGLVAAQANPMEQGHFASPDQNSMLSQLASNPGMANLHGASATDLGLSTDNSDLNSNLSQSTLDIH

SMILES	IC50 [1, 6] [nM]	IC50 ([1]; read-out: IC50) [nM]	acetylation levels (immunoblot) [4]	BRD4 degradation (immunoblot) [5]	P300 degradation (immunoblot) ([3]; at 1 μM)	CBP degradation (immunoblot) ([2]; at 1 μM)	also measured
Cc1noc(C)c1-c1ccc2nc(-c3ccc(N4CCN(C(=O)CCOCCOCCOCCOCCOCCOCCNc5cccc6c5C(=O)N(C5CCC(=O)NC5=O)C6=O)CC4)cc3)c(NC3CCCCC3)n2c1 (stereo not drawn) [Compound 3, 4-((21-(4-(4-(3-(cyclohexylamino)-6-(3,5-dimethylisoxazol-4-yl)imidazo[1,2-a]pyridin-2-yl)phenyl)piperazin-1-yl)-21-oxo-3,6,9,12,15,18-hexaoxahenicosyl)amino)-2-(2,6-dioxopiperidin-3-yl)isoindoline-1,3-dione]	100 to 1000	706	–	–	–	–	IC50 values (range in words) [1]: micromolar and sub-micromolar range; CBP degradation (immunoblot) ([2]; at 10 μM): some degradation; P300 degradation (immunoblot) ([3]; at 10 μM): some degradation
Cc1noc(C)c1-c1ccn2c(NC3CCCCC3)c(CCc3ccc(NC(=O)COc4cccc5c4C(=O)N(C4CCC(=O)NC4=O)C5=O)cc3)nc2c1 (stereo not drawn) [Compound 12, N-(4-(2-(3-(cyclohexylamino)-7-(3,5-dimethylisoxazol-4-yl)imidazo[1,2-a]pyridin-2-yl)ethyl)phenyl)-2-((2-(2,6-dioxopiperidin-3-yl)-1,3-dioxoisoindolin-4-yl)oxy)acetamide]	1000 to 10000	–	reduction	observed	noticeable degradation	–	–
Cc1noc(C)c1-c1ccn2c(NC3CCCCC3)c(CCc3ccc(NC(=O)CCOCCOCCOCCNc4cccc5c4C(=O)N(C4CCC(=O)NC4=O)C5=O)cc3)nc2c1 (stereo not drawn) [Compound 8, N-(4-(2-(3-(cyclohexylamino)-7-(3,5-dimethylisoxazol-4-yl)imidazo[1,2-a]pyridin-2-yl)ethyl)phenyl)-3-(2-(2-(2-((2-(2,6-dioxopiperidin-3-yl)-1,3-dioxoisoindolin-4-yl)amino)ethoxy)ethoxy)ethoxy)propanamide]	100 to 1000	–	reduction	observed	noticeable degradation	noticeable degradation	–
Cc1noc(C)c1-c1ccc2c(c1)nc(CCc1ccc(NC(=O)CCCCCCCNc3cccc4c3C(=O)N(C3CCC(=O)NC3=O)C4=O)cc1)n2CC(C)N1CCOCC1 (stereo not drawn) [Compound 26, N-(4-(2-(5-(3,5-dimethylisoxazol-4-yl)-1-(2-morpholinopropyl)-1H-benzo[d]imidazol-2-yl)ethyl)phenyl)-8-((2-(2,6-dioxopiperidin-3-yl)-1,3-dioxoisoindolin-4-yl)amino)octanamide]	> 10000	–	–	–	–	–	–
Cc1noc(C)c1-c1ccn2c(NCc3ccccc3)c(-c3ccc(N4CCN(C(=O)CCOCCOCCOCCNc5cccc6c5C(=O)N(C5CCC(=O)NC5=O)C6=O)CC4)cc3)nc2c1 (stereo not drawn) [Compound 6, 4-((2-(2-(2-(3-(4-(4-(3-(benzylamino)-7-(3,5-dimethylisoxazol-4-yl)imidazopyridin-2-yl)phenyl)piperazin-1-yl)-3-oxopropoxy)ethoxy)ethoxy)ethyl)amino)-2-(2,6-dioxopiperidin-3-yl)isoindoline-1,3-dione]	1000 to 10000	1270	–	–	–	–	–
Cc1noc(C)c1-c1ccn2c(NCc3ccccc3)c(-c3ccc(N4CCN(C(=O)COc5cccc6c5C(=O)N(C5CCC(=O)NC5=O)C6=O)CC4)cc3)nc2c1 (stereo not drawn) [Compound 7, 4-(2-(4-(4-(3-(benzylamino)-7-(3,5-dimethylisoxazol-4-yl)imidazo[1,2-a]pyridin-2-yl)phenyl)piperazin-1-yl)-2-oxoethoxy)-2-(2,6-dioxopiperidin-3-yl)isoindoline-1,3-dione]	< 100	33.1	–	–	noticeable degradation	noticeable degradation	H3K27ac / acetylation levels (immunoblot) ([4]; concentration not given): slight reduction; IC50 values (range in words) [1]: micromolar and sub-micromolar range
Cc1noc(C)c1-c1ccn2c(NC3CCCCC3)c(CCc3ccc(NC(=O)CCCCCNc4cccc5c4C(=O)N(C4CCC(=O)NC4=O)C5=O)cc3)nc2c1 (stereo not drawn) [Compound 11, N-(4-(2-(3-(cyclohexylamino)-7-(3,5-dimethylisoxazol-4-yl)imidazo[1,2-a]pyridin-2-yl)ethyl)phenyl)-6-((2-(2,6-dioxopiperidin-3-yl)-1,3-dioxoisoindolin-4-yl)amino)hexanamide]	100 to 1000	–	reduction	observed	noticeable degradation	noticeable degradation	–
Cc1noc(C)c1-c1ccc2c(c1)nc(CCc1ccc(NC(=O)CCOCCOCCOCCNc3cccc4c3C(=O)N(C3CCC(=O)NC3=O)C4=O)cc1)n2CCN1CCOCC1 (stereo not drawn) [Compound 22, N-(4-(2-(5-(3,5-dimethylisoxazol-4-yl)-1-(2-morpholinoethyl)-1H-benzo[d]imidazol-2-yl)ethyl)phenyl)-3-(2-(2-(2-((2-(2,6-dioxopiperidin-3-yl)-1,3-dioxoisoindolin-4-yl)amino)ethoxy)ethoxy)ethoxy)propanamide]	> 10000	–	–	–	–	–	–
Cc1noc(C)c1-c1ccn2c(NC3CCCCC3)c(CCc3ccc(NC(=O)CCCCCCCCCCCNc4cccc5c4C(=O)N(C4CCC(=O)NC4=O)C5=O)cc3)nc2c1 (stereo not drawn) [Compound 9, N-(4-(2-(3-(cyclohexylamino)-7-(3,5-dimethylisoxazol-4-yl)imidazo[1,2-a]pyridin-2-yl)ethyl)phenyl)-12-((2-(2,6-dioxopiperidin-3-yl)-1,3-dioxoisoindolin-4-yl)amino)dodecanamide]	> 10000	–	–	–	–	–	–
